Experiments:
[1] = Particle diameter by laser diffraction (Malvern Mastersizer); format: physicochemical
Description: The “particle diameter” refers to the equivalent spherical diameter as determined by laser light scattering method. Particle diameter of lamotrigine was determined by laser diffraction. We determined the diameter of lamotrigine particles using a Malvern™ Mastersizer laser diffraction instrument. Samples of lamotrigine were suspended in hexane containing a surfactant (0.07% dioctyl sulfosuccinate sodium salt). The suspensions were mixed and then sonicated for 15 seconds to thoroughly disperse the lamotrigine particles. The dispersion was then recirculated in the flow cell of the Malvern Mastersizer for two minutes before particle diameter measurements were taken.

[2] = Specific surface area by gas adsorption, multipoint BET (Coulter SA3100); format: physicochemical; settings: micronized particles; degassing 70° C., 30 minutes; 10 points
Excerpt: Gas adsorption analysis is a preferred method for determining the surface area of a sample of lamotrigine for purposes of this invention since it provides a direct measurement of surface area. It is therefore considered to be more accurate than other methods such as electron microscopy and laser diffraction that rely upon a model to obtain a value for surface area (e.g. equivalent sphere model).
We measured specific particle surface area by gas adsorption using a Coulter™ SA3100 Series adsorption analyzer. The specific surface area of a sample of lamotrigine particles was calculated by the multipoint Brunauer, Emmet and Teller (BET) method. Brunauer, S., P. H. Emmett, E. Teller, J. Am. Chem. Soc., 1938, 60, 309-319. The calculations of the surface area of lamotrigine particles and its precise weight would yield specific surface area (usually expressed as square meters/gram). […] The volume of the manifold was measured with helium gas using a conventional technique. […] The instrument's software calculated the moles of adsorbed N2 (based upon inputted sample mass, manifold volume and sample tube void volume) for ten equilibrium pressures (Ps). […]
The specific surface area of the lamotrigine particles was measured with a Coulter SA 3100, using the multipoint BET technique. […] For the linearity, 10 points were measured, using high sensitivity.

[3] = initial particles before air jet milling

Row | Compound | particle diameter, 50% of the particles equal to or less than [1, 3] | particle diameter, about 80% of the particles equal to or less than [1, 3] | diameter of all particles in the plurality ([1]; after micronization in air jet mill) | specific surface area [2]
1 | Nc1nnc(-c2cccc(Cl)c2Cl)c(N)n1 [Lamotrigine, 3,5-diamino-6-(2,3-dichlorophenyl)-1,2,4-triazine] | ≤ 250 μm | ≤ 500 μm |  | 
2 | Nc1nnc(-c2cccc(Cl)c2Cl)c(N)n1 [lamotrigine micronized particles, 3,5-diamino-6-(2,3-dichlorophenyl)-1,2,4-triazine] |  |  | less than 100 μm | 3.1-3.3 square meters per gram

Reference: US20050238724A1, “Pharmaceutical composition containing lamotrigine particles of defined morphology” (Teva Pharmaceutical Industries Ltd., priority 2002, published 2005)
